# Source: patent publication EP0362382A1, “METHOD OF STERILIZING PLANT POLLEN” (VSESOJUZNY NAUCHNO-ISSLEDOVATELSKY INST. SELSKOKHOZYAISTV. …, priority 1988, dated 1989)
# Tested on: diploidem Roggen
# Assay: Field test of gametocidal activity (sterilisation of anthers), diploid rye
# Format: in vivo
# Details: Sorte Gibrid 1861/79; V. und VI. Periode der Organogenese; 1%ige wäßrige Emulsion; 8 kg/ha
# Excerpt: (§1) Die gametozide Aktivitat der erfindungsgemäßen Sterilisationsmittel war im Feldversuch in verschiedenen bodenklimatischen Zonen mit Teilstücken von 10 m^2 Größe in drei- bis viermaliger Wiederholung festgestellt. Jedes Sterilisationsmittel wurde mindenstens 5 Jahre lang geprüft.
# (§2) Die Entwicklung der Perioden der Organogenese wird zytologisch überwacht. Die Behandlung von Pflanzen mit dem Sterilisationsmittel erfolgt am Anfang der fünften Periode der Organogenese nach Kupermann.
# (§3) Mit dem Ährenschieben verwirklicht man die Isolierung von Hauptähren und anderen Stockwerken in Pergamentbeuteln. Bei Weizen und Tritikale werden Einzelisolatoren benutzt. Bei Roggen schließt man je Ähre 5 bis 7 verschiedene nebeneinander befindliche Pflanzen unter einen gemeinsamen Isolator ein. Bei Hierse wird jede Rispe getrennt isoliert. Der Sterilitätsprozentsatz (X) für Weizen, Roggen, Tritikale und Hirse wird nach der Formel [formula] ermittelt.
# (§4) Die Kornzahl in nicht isolierten Ähren von Kontrollpflanzen wird bedingt für 100 % Ansetzen bei freier Bestäubung angenommen.
# (§5) Um zuverlässige Angaben zu erhalten, verwendet man 20 bis 25 Isolatoren jeder Wiederholung für Weizen und Tritikale, 10 .bis 15 Isolatoren jeder Wiederholung für Roggen und Hirse.
# Pflanzen von diploidem Roggen Sorte Wosohod 2 werden in der V. Periode der Organogenese (nach Kupermann) mit 1%iger wäßriger Emulsion von Bis(di-n-butyläther) der δ, δ' -Thiodivaleriansäure, 4-Krboxybutyldezylsulfid, Natriumsalz der δ, δ' -Thiodivaleriansäure, Bis(2-äthylhexyläther) der δ, δ' -Thiodivaleriansäure, δ, δ' -Sulfonyldivaleriansäure, Natriumsalz der δ, δ'-Sulfonyldivaleriansäure, Kaliumsalz der δ, δ' -Sulfonyldivaleriansäure behandelt. Die Emulsion enthält 0,1 Masse% […] mit 12 bis 14 Kohlenstoffatomen und 0,01 Masse% Tetrahydrofuran. Der Verbrauch an Präparat beträgt 6 kg/ha. Als Kontrolle dienen Pflanzen, behandelt mit einem Verdünner ohne Sterilisationsmittel.
# Pflanzen von diploidem Roggen Sorte Gibrid 1861/79 werden in der V. und VI. Periode der Organogenese (nach Kupermann) mit 1%iger wäßriger Emulsion von Bis(di-n-butyläther) der δ, δ' -Thiodivaleriansäure, δ, δ' -Thiodivaleriansäure, Natriumsalz der δ δ' -Thiodivaleriansäure, 4-Karboxybutyldezylsulfid, δ , δ' -Sulfonyldivaleriansäure, Kaliumsalz der δ, δ' -Sulfonyldivaleriansäuleriansäure, Kaliumalz der δ' -Sulfonyldivaleriansäure, Bis(2-äthylhexyläther) der δ, δ' -Thiodivaleriansäure behandelt. Die Emulsion enthält 0,1 Masse% Kalziumalkylbenzolsulfonat mit 12 bis 14 Kohlenstoffatomen und 0,01 Masse% Dimethylformamid. Der Verbrauch an Präparat beträgt 8 kg/ha. Als Kontrolle dienen Pflanzen, behandelt mit einem Verdünner ohne Sterilisationsmittel. Die Prüfergebnisse sind in der Tabelle 10 angegeben.
Molecule,Anzahl von Körnern der Ähre bei freier Bestäubung,Anzahl von Körnern der Ähre im Isolator,Prozentsatz der Sterilität,Prozentsatz des Ansetzens von Körnern bei freier Bestäubung
"O=C(O)CCCCS(=O)(=O)CCCCC(=O)O [Beispiel 48, δ , δ' -Sulfonyldivaleriansäure]","54,7","0,0","100,0%","87,1%"
"O=C(O)CCCCS(=O)(=O)CCCCC(=O)O [Beispiel 49, Kaliumsalz der δ, δ' -Sulfonyldivaleriansäuleriansäure]","57,0","0,0","100,0%","90,8%"
"CCCCC(CC)COC(=O)CCCCSCCCCC(=O)OCC(CC)CCCC (stereo not drawn) [Beispiel 50, Bis(2-äthylhexyläther) der δ, δ' -Thiodivaleriansäure]","53,2","0,0","100,0%","84,7%"

# Tested on: tetraploidem Roggen
# Assay: Field test of gametocidal activity (sterilisation of anthers), tetraploid rye
# Format: in vivo
# Details: Sorte Belta; V. Periode der Organogenese; 1%ige wäßrige Emulsion; 6 kg/ha
# Excerpt: as §1, §2, §3, §4, §5
# Pflanzen von tetraploidem Roggen Sorte Belta werden in der V. Periode der Organogenese (nach Kupermann) mit 1%iger wäßriger Emulsion von d, δ' -Thiodivaleriansäure, Natriumsalz der δ, δ' -Thiodivaleriansäure, δ, δ' -Sulfonylvaleriansäure, Natriumsalz der δ, δ' -Sulfonyldivaleriansäure, Kaliumsalz der d, δ' -Sulfonyldivaleriansäure, Bis(di-n-butyläther) der δ, δ' -Thiodivaleriansäure, Bis(2-Äthylhexyläther) der δ, δ'-Thiodivaleriansäure, 4-Karboxybutyldezylsulfid behandelt. Die Emulsion enthält 0,1 Masse% Kalziumalkylbenzolaulfonat und 0,01 Masse% Dimethylsulfoxid. Der Verbrauch an Präparat beträgt 6 kg/ha. Als Kontrolle dienen Pflanzen, behandelt mit einem Verdünner ohne Sterilisationsmittel. Die Prüfergebnisse sind in der Tabelle 11 angegeben. […] Periode der Organogese erhalten.
Molecule,Anzahl von Körnern der Ähre bei freier Bestäubung,Anzahl von Körnern der Ähre im Isolator,Prozentsatz der Sterilität,Prozentsatz des Ansetzens von Körnern bei freier Bestäubung
"O=C(O)CCCCSCCCCC(=O)O [Beispiel 51, d, δ' -Thiodivaleriansäure]","32,9","0,3","99,3%","74,4%"
"O=C(O)CCCCSCCCCC(=O)O [Beispiel 52, Natriumsalz der δ, δ' -Thiodivaleriansäure]","40,6","0,1","99,8%","91,8%"
"O=C(O)CCCCS(=O)(=O)CCCCC(=O)O [Beispiel 53, δ, δ' -Sulfonylvaleriansäure]","39,0","0,0","100,0%","88,2%"
"O=C(O)CCCCS(=O)(=O)CCCCC(=O)O [Beispiel 54, Natriumsalz der δ, δ' -Sulfonyldivaleriansäure]","34,6","0,0","100,0%","78,2%"
"O=C(O)CCCCS(=O)(=O)CCCCC(=O)O [Beispiel 55, Kaliumsalz der d, δ' -Sulfonyldivaleriansäure]","34,0","0,0","100,0%","76,9%"
"CCCCOC(=O)CCCCSCCCCC(=O)OCCCC [Beispiel 56, Bis(di-n-butyläther) der δ, δ' -Thiodivaleriansäure]","38,2","0,0","100,0%","86,7%"
"CCCCC(CC)COC(=O)CCCCSCCCCC(=O)OCC(CC)CCCC (stereo not drawn) [Beispiel 57, Bis(2-Äthylhexyläther) der δ, δ'-Thiodivaleriansäure]","42,7","0,0","100,0%","96,6%"
"CCCCCCCCCCSCCCCC(=O)O [Beispiel 58, 4-Karboxybutyldezylsulfid]","40,3","0,0","100,0%","91,2%"

# Tested on: Hirse
# Assay: Field test of gametocidal activity (sterilisation of anthers), millet
# Format: in vivo
# Details: Sorte K9009, Poltawskaja oblast; V. Periode der Organogenese; 1%ige wäßrige Emulsion; 6 kg/ha
# Excerpt: as §1, §2, §3, §4, §5
# Pflanzen der Hirse Sorte Mironowskoe 94 werden in der V. Periode der Organogenese (nach Kupermann) mit 1%iger wäßriger Emulsion von 4-Karboxybutyldezylsulfid, δ, δ' -Sulfonyldivaleriansäure, Bis(2-äthylhexyläther) der δ, δ' -Thiodivaleriansäure behandelt. Die Emulsion enthält 0,1 Masse% Kalziumalkylbenzolsulfonat mit 12 bis 14 Kohlenstoffatomen und 0,01 Masse% Dodezylsulfat. Der Verbrauch an Präparat beträgt 10 kg/ha. Als Kontrolle dienen Pflanzen, behandelt mit einem Verdünner ohne Sterilieationsmittel. Die Prüfergebnisse sind in der Tabelle 14 angegeben. […] Periode der Organogenese erhalten.
# Pflanzen der Hirse Sorte K9009, Poltawskaja oblast (Poltawaer Gebiet) werden in der V.Periode der Organogenese (nach Kupermann) mit 1%iger wäßriger Emulsion von δ, δ' Thiodivaleriansäure, Natriumsälz der δ, δ'- -Thiodivaleriansäure, δ, δ' -Sulfonyldivaleriansäure, Bis([…]) der d, δ' -Thiodivaleriansäure, 4-Karboxybutyldezylsulfid behandelt. Die Emulsion enthält 0,1 Masse% Kalziumalkylbenzolsulfonat mit 12 bis 14 Kohlenstoffatomen und 0,01 Masse% Tetrahydrofuran, Der Verbrauch an Präparat beträgt 6 kg/ha. Als Kontrolle dienen . Pflanzen, behandelt mit einem Verdünner ohne Sterilisationsmittel. Die Prüfergebnisse sind in der Tabelle 15 angegeben. […] Periode der Organogenese erhalten.
# Pflanzen der Hirse Sorte K-9693 Kormowoe 1 werden in der V. Periode der Organogenese (nach Kupermann) mit l%iger wäßriger Emulsion von Bis(di-n-butyläther) der δ, δ' -Thiodivaleriansäure, Natriumsalz der δ, δ' -Sulfonyldivaleriansäure behandelt. Der Verbrauch an Präparat beträgt 6 kg/ha. Als Kontrolle dienen Pflanzen, behandelt mit einem Verdünner ohne Sterilisationsmittel. Die Prüfergebnisse sind in der Tabelle 16 angegeben. […] Periode der Organogenese erhalten.
Molecule,Anzahl von Körnern der Rispe bei freier Bestäubung,Anzahl von Körnern der Rispe im Isolator,Prozentsatz der Sterilität,Prozentsatz des Ansetzens von Körnern bei freier Bestäubung
"O=C(O)CCCCSCCCCC(=O)O [Beispiel 68, δ, δ' Thiodivaleriansäure]","101,4","0,0","100,0%","78,1%"
"O=C([O-])CCCCSCCCCC(=O)[O-].[Na+].[Na+] [Beispiel 69, Natriumsälz der δ, δ'- -Thiodivaleriansäure]","105,1","0,0","100,0%","81,2%"
"O=C(O)CCCCS(=O)(=O)CCCCC(=O)O [Beispiel 70, δ, δ' -Sulfonyldivaleriansäure]","77,1","0,0","100,0%","60,0%"
"CCOCCOC(=O)CCCCSCCCCC(=O)OCCOCC [Beispiel 71, Bis(2-äthylglykoläther) der d, δ' -Thiodivaleriansäure]","112,0","0,0","100,0%","86,6%"
"CCCCCCCCCCSCCCCC(=O)O [Beispiel 72, 4-Karboxybutyldezylsulfid]","100,7","0,0","100,0%","77,8%"

# Same assay, conditions: Sorte K-9693 Kormowoe 1; V. Periode der Organogenese; 1%ige wäßrige Emulsion; 6 kg/ha
Molecule,Anzahl von Körnern der Rispe bei freier Bestäubung,Anzahl von Körnern der Rispe im Isolator,Prozentsatz der Sterilität,Prozentsatz des Ansetzens von Körnern bei freier Bestäubung
"O=C([O-])CCCCS(=O)(=O)CCCCC(=O)[O-].[Na+].[Na+] [Beispiel 74, Natriumsalz der δ, δ' -Sulfonyldivaleriansäure]","103,5","0,0","100,0%","70,5%"
"Bis(di-n-butyläther) der δ, δ' -Thiodivaleriansäure [Beispiel 73]","122,1","0,0","100,0%","83,2%"

# Same assay, conditions: Sorte Mironowskoe 94; V. Periode der Organogenese; 1%ige wäßrige Emulsion; 10 kg/ha
Molecule,Anzahl von Körnern der Rispe bei freier Bestäubung,Anzahl von Körnern der Rispe im Isolator,Prozentsatz der Sterilität,Prozentsatz des Ansetzens von Körnern bei freier Bestäubung
"CCCCCCCCCCSCCCCC(=O)O [Beispiel 65, 4-Karboxybutyldezylsulfid]","323,7","0,0","100,0%","88,3%"
"O=C(O)CCCCS(=O)(=O)CCCCC(=O)O [Beispiel 66, δ, δ' -Sulfonyldivaleriansäure]","336,8","0,0","100,0%","91,9%"
"CCCCC(CC)COC(=O)CCCCSCCCCC(=O)OCC(CC)CCCC (stereo not drawn) [Beispiel 67, Bis(2-äthylhexyläther) der δ, δ' -Thiodivaleriansäure]","312,8","0,0","100,0%","85,3%"
